Results reported in patent publication US20250032488A1, “METHODS OF TREATMENT USING LOU064” (NOVARTIS AG, priority 2021, published 2025).

How the values were obtained:
BTK [1] = target: T1, BTK (Homo sapiens, UniProt Q06187); assay: Translational PK/PD model: simulated BTK occupancy in human spleen/tissues; details: from prediction model of spleen BTK occupancy and HED
T1 construct: simulate BTK occupancy in human spleen/tissues across a range of doses; from tissue; host or cells: human spleen/tissues (simulated, not sampled)
Excerpt: The purpose of this analysis was to characterize the pharmacokinetics (PK) of LOU064 in healthy volunteers and to use a previously developed, translational target occupancy model to simulate BTK occupancy in human spleen/tissues across a range of doses and dosing regimen (B.I.D vs QD).
Pharmacokinetic data from a Phase I clinical study reported by Kaul et al. (2021) were used in the current analysis, including 102 patients.
A translational target occupancy model to simulate BTK occupancy in spleen/tissues was developed using a two-step approach.
In a first step, a population PK model was established to describe LOU064 PK data from Phase I clinical study reported by Kaul et al. (2021). In a second step, the parameter estimates from the population PK model were used in the BTK occupancy model to predict BTK occupancy in blood and spleen/tissues. Ultimately the BTK occupancy model was used to predict the BTK occupancy in spleen/tissues for different dosing regimens (QD, B.I.D) at different doses.

healthy atopic subjects = details: doses of greater than or equal to 100 mg qd, MAD, across all tests; cited from earlier work
patients with CSU = assay: Phase 2b core study in CSU: safety; type: in vivo, human
BALB/c mice = assay: Ovalbumin induced anaphylaxis mouse model: BALF cell counts; type: in vivo; details: 10 mg/kg, 30 mg/Kg p.o. B.I.D., OVA-sensitized mice with poly I:C
Protocol: This experiment was carried out to investigate the anti-inflammatory effect of LOU064 (10 mg and 30 mg/Kg in OVA-sensitized mice instilleed with polyinosine-polycytidylic acid (poly I: C).
Mice were actively sensitised with ovalbumin (15 μg, s.c.) and 25 μL of Imject Alum on days 0, 7 and 14. In order to elicit a local inflammatory response in the lung, mice were repeatedly exposed on days 21-24 with an aerosol of 1% w/v ovalbumin in phosphate buffered saline (PBS), generated with an ultrasonic nebuliser (Aerogen) for 20 min. 16 h after the final exposure to OVA on day 24, polyinosine-polycytidylic acid (poly I: C, 100 μg/animal) or the vehicle (PBS) was delivered intratracheally with a Microsprayer (model IA-1C with FMJ-250 high pressure syringe, Penn-Century) under anaesthesia with ketamine (100 mg/Kg, i.p.) and xylazine (10 mg/Kg, i.p.). […]
24 h after the final OVA challenge, blood samples were collected by venepuncture into pre-chilled Li Hep tubes. […] The cell pellets were then re-suspended in 1.6 mL of phosphate buffered saline and the BAL cells were then analysed for total and differential numbers. Total and differential cell counts of the BAL fluid samples were measured using a XT-2000iV analyser (Sysmex). […]

BTK [2] = target: T2, BTK (Mus musculus, UniProt P35991); assay: BTK occupancy in spleen, PCA study; type: in vivo, mice; details: 2.5 hours after second oral dose, read-out: BTK occupancy in spleen relative to vehicle controls
T2 construct: each spleen was crushed and lysed in a GentleMACS; from tissue; host or cells: mouse spleen (BALB/c, C57Bl6) and lung (C57Bl6)
Protocol: The levels of BTK occupancy after dosing of LOU064 was determined in separate ELISAs for total BTK protein and for bound BTK (=free BTK).
Covalent binding of compounds to BTK was determined with immunoassays for free BTK (i.e., not covalently occupied by compound) and total BTK protein. For free BTK measurements, samples were incubated with a biotinylated covalent BTK probe (Pulz R et al, ACS Med. Chem. Lett. 2019, 10, 1467-1472) then samples were added to streptavidin ELISA plates to allow binding of probe-bound BTK. The binding of the probe to BTK is mutually exclusive with compound binding to BTK. Plate-bound BTK was detected with an anti-BTK antibody (D3H5, Cell Signaling Technology). For total BTK measurements, an ELISA plate was coated with D3H5 anti-BTK to capture total BTK. An anti-BTK antibody (no. 53, BD Biosciences) directed to a different epitope was then used to detect captured BTK. The respective free BTK levels for each sample were normalized to the total BTK level in the same sample, and these ratios were expressed as percentage of the vehicle control samples. […]
The relative BTK occupancy was calculated as the ratio of free BTK (signal of bound BTK) to total BTK for each sample: Ri=free BTK/total BTK. The individual Ri values were then normalized to the vehicle group and expressed as percent occupancy: (average of Ri vehicle group-Ri)/(average of Ri vehicle group)*100%

[3] = Core study, Any dose, N = 267, listed as remibrutinib

T2 sequence (P35991 whole entry): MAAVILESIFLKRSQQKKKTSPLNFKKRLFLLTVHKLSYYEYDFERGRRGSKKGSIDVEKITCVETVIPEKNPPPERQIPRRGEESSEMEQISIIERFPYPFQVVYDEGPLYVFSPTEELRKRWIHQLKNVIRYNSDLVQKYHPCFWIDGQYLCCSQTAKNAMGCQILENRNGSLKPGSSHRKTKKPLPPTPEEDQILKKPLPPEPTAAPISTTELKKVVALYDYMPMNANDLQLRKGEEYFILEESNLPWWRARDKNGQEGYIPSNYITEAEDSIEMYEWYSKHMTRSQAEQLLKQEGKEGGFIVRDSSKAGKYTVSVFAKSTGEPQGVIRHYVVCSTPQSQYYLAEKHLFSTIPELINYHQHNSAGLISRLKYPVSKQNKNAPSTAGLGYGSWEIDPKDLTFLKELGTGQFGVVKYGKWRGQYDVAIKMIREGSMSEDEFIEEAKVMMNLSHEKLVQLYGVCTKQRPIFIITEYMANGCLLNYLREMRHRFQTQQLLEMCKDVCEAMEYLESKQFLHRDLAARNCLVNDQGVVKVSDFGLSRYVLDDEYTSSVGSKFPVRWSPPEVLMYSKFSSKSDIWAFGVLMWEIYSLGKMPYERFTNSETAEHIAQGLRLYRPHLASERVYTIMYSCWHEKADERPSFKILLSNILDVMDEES
T1 sequence (Q06187 whole entry): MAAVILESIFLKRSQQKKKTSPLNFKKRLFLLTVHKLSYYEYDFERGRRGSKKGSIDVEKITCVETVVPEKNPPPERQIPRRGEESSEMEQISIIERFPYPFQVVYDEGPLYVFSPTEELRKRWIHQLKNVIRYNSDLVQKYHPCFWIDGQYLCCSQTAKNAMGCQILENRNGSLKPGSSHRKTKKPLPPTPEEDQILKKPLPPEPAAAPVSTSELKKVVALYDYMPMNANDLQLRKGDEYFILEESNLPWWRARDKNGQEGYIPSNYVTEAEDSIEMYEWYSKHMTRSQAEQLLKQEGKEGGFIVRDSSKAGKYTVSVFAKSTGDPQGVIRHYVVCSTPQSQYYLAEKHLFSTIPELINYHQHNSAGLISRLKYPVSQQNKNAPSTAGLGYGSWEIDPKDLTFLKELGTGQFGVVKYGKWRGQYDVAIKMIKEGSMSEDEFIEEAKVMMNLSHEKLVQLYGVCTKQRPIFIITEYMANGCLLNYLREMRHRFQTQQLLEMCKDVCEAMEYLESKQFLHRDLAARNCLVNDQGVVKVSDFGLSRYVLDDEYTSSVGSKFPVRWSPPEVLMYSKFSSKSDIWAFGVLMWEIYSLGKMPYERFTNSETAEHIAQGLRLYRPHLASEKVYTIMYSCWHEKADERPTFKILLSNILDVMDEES

In the case of C=CC(=O)N(C)CCOc1c(N)ncnc1-c1cc(F)cc(NC(=O)c2ccc(C3CC3)cc2F)c1C [LOU064, N-(3-(6-amino-5-(2-(N-methylacrylamido)ethoxy)pyrimidin-4-yl)-5-fluoro-2-methylphenyl)-4-cyclopropyl-2-fluorobenzamide], the “Minimal human effective dose” value (BTK [1]) is given as 25 mg b.i.d, the “Average decrease in wheal size (SPT)” value (healthy atopic subjects) is given as 3 mm and the “Patients with newly occurring ALT>5xULN” value (patients with CSU; CS, normalised on treatment) is given as 1 patient. The “Patients with ≥1 AE” value (patients with CSU; Core study, 10 mg b.i.d., N = 44) was 21 n, the “Patients with ≥1 AE” value (patients with CSU; Core study, 10 mg q.d., N = 44) was 29 n and the “Patients with ≥1 AE” value (patients with CSU; Core study, 25 mg b.i.d., N = 43) was 26 n. For the same compound, the “Patients with ≥1 AE” value (patients with CSU; Core study, 35 mg q.d., N = 44) was 23 n, the “Patients with ≥1 AE” value (patients with CSU; Core study, 100 mg b.i.d., N = 45) was 29 n and the “Patients with ≥1 AE” value (patients with CSU; Core study, 100 mg q.d., N = 47) was 27 n. The “Headache (AEs by PT)” value (patients with CSU; [3]) was 9.7%, the “Infections and infestations (AEs by primary system organ class)” value (patients with CSU; [3]) was 24.0% and the “Skin and subcutaneous tissue disorders (AEs by primary system organ class)” value (patients with CSU; [3]) was 16.9%. The “Numbers of cells involved in lung anaphylaxis (BALF)” value (BALB/c mice) was “significantly reduced” and the receptor occupancy at 3 mg/kg (BTK [2]) was 89.1%.
